Laboratory results from ChEMBL document CHEMBL5441142, “Probing the Merck KGaA Open Global health library for novel starting points for anti-schistosomal drug discovery” (2024).
The source made the active and inactive calls. How the calls were made is not given here.

Tested on: Schistosoma mansoni
Assay: In vitro activity screen on S. mansoni schistosomula at 10 uM. Compound-induced effects were assessed by quantifying larva motility and phenotype using Roboworm.
Type: functional, organism-based
Design: test concentration 10 uM, temperature 37 degree C, time incubation 72 h
Conditions: Puerto Rican

SMILES	In vitro activity
CCCc1nn(C)c2c(=O)[nH]c(-c3cc(S(=O)(=O)Oc4cccnc4C)ccc3OCC)nc12	inactive
COc1ccc(CNc2nc(-c3ccc(C(=O)O)cc3)nc3sc4c(c23)CCCC4)cc1Cl	inactive
COCc1cc(-c2nc(-c3ccc(CN(C)CC(=O)O)cc3)no2)ccc1-c1ccccc1C	inactive
CC1=C(C(=O)N2CCc3ncc(C(F)(F)F)cc3C2)C2(CCN(C3CCCCC3)CC2)OC1=O	inactive
O=C(CCN1CCCCC1)c1ccc2[nH]c(=O)sc2c1	inactive
CC1=C(C(=O)N2CCc3ncc(C(F)(F)F)cc3C2)C2(CCN([C@H]3CC[C@@H](O)CC3)CC2)OC1=O	inactive
CCN1CCC2(CC1)OC(=O)C(C)=C2C(=O)N1C[C@@H]2C[C@H]1CN2c1cc(C(F)(F)F)ccn1	inactive
CC1=C(C(=O)N2CCc3ccc(C(F)(F)F)cc3C2)C2(CCN(C3CCC(O)CC3)CC2)OC1=O (stereo not drawn)	inactive
COCc1cc(-c2nc(-c3ccc(CN(C)CC(=O)O)c(F)c3)no2)ccc1-c1cccc(F)c1C	inactive
CC1=C(C(=O)N2COc3ccc(C(F)(F)F)cc3C2)C2(CCN(C(C)C)CC2)OC1=O	inactive
CCOC(=O)Nc1ccc(C(=O)N2CCCC(c3ccc(OC)c(OCC)c3)=N2)cc1	inactive
CC1=C(C(=O)N2CCN(c3cccc(C(F)(F)F)c3)CC2)C2(CCN(CCc3ccccc3)CC2)OC1=O	inactive
Cc1cc(C(=O)C(C)SN2C(=O)c3ccccc3C2=O)ccc1O (stereo not drawn)	inactive
Cc1cc(OC(F)(F)F)c(S(C)(=O)=O)cc1C(=O)N=C(N)N	inactive
CC1=C(C(=O)N2CCc3ccc(C(F)(F)F)cc3C2)C2(CCN(C(C)C)CC2)OC1=O	inactive
O=c1nc(Nc2cccc(Oc3ccncc3)c2)[nH]c2ccccc12	inactive
CC1=C(C(=O)N2CCN(c3cccc(C(F)(F)F)c3)CC2)C2(CCN(C(C)C)CC2)OC1=O	inactive
O=C(O)c1cn(Cc2ccc(-n3cccn3)cc2)c2c(F)ccc(F)c2c1=O	inactive
CC1(C)C=C(n2ccccc2=O)c2cc(C#N)ccc2O1	inactive
COc1cc(C(=O)Nc2cn(Cc3ccc(Cl)c(Cl)c3)nn2)ccc1-n1cnc(C)c1	inactive
COc1ccc(OC)c(Nc2nc3ccccc3nc2NS(=O)(=O)Cc2cccnc2)c1	inactive
COc1ccc(C2=NN(C(=O)c3ccc(NC(=O)c4cccnc4)cc3)CCC2)cc1OC1CCCC1	inactive

SMILES	In vitro activity
COc1ccc(OC)c(-c2cn3cc(C(=O)NCCc4cc(OC)c5c(c4OC)OCO5)sc3n2)c1	inactive
CC(/C=C/c1cc(/C=C/C(C)=C/C(=O)O)cc(-c2ccc(C(F)(F)F)cc2)c1)=C\C(=O)O	inactive
CCC(C)Oc1ccc(-c2nc(-c3cc(F)cc(CN(C)CC(=O)O)c3)no2)cc1COC (stereo not drawn)	inactive
CCc1cc2c(NCc3ccc(OC)c(Cl)c3)nc(-c3ccc(C(=O)O)cc3)nc2s1	inactive
O=C(O)c1ccc(-c2nc(NCc3ccc4c(c3)OCO4)c3c4c(sc3n2)CCCC4)cc1	inactive
COc1cc(SCCO)ccc1-c1nc2ccncc2[nH]1	inactive
COCc1cc(-c2nc(-c3cccc(CN(C)CC(=O)O)c3)no2)ccc1N1CCCCC1	inactive
CCCc1nn(C)c2c(=O)[nH]c(-c3cc(S(=O)(=O)Oc4cccnc4)ccc3OCC)nc12	inactive
CCCc1nn(C)c2c(NCc3ccc(OC)c(Cl)c3)nc(CCCCC(=O)NS(C)(=O)=O)nc12	inactive
CCCCCCN(Cc1ccc(C#Cc2ccc(CCCC)cc2)cc1)c1ccc(F)c(C(=O)O)c1	inactive
O=C(c1cc(-c2ccccn2)nc2ccc(Br)cc12)N1CCCC1	inactive
CCCCCCN(Cc1ccc(C#Cc2ccc(CCCC)cc2)cc1)C(=O)c1ccc(O)c(C(=O)O)c1	inactive
COCc1cc(-c2nc(-c3cccc(CN(C)CC(=O)O)c3)no2)ccc1N1CCCC1C (stereo not drawn)	inactive
CCc1cc(C)c(C(=O)N=C(N)N)cc1S(C)(=O)=O	inactive
CN(C)c1cccc2c(S(=O)(=O)Nc3ccc4nsnc4c3)cccc12	inactive
Cc1ccc(CNc2nc(N3CCC(C(=O)O)CC3)nc3sc4c(c23)CCCC4)cc1	inactive
O=C(O)c1cn(Cc2ccc(-c3ccccc3)cc2)c2ccccc2c1=O	inactive
CCCCC[C@H](O)/C=C/[C@H]1CCC(=O)N1CCc1ccc(C(=O)O)cc1	inactive
COc1cc(S(C)(=O)=O)ccc1-c1nc2ccncc2[nH]1	inactive
COCc1cc(-c2nc(-c3cc(F)cc(CN(C)CCC(=O)O)c3)no2)ccc1-c1ccccc1C	inactive
COc1cc(OC)cc(-c2cn3cc(C(=O)NCCc4c(OC)cc(OC)cc4OC)sc3n2)c1	inactive
CNC(=O)c1cc(Oc2ccc(NC(=O)Nc3cc(C(F)(F)F)ccc3-n3cncn3)cc2)ccn1	inactive

SMILES	In vitro activity
Cc1cc(C2=CCCC2)c(S(C)(=O)=O)cc1C(=O)N=C(N)N	inactive
CCS(=O)(=O)c1cc(C)c(C(=O)N=C(N)N)cc1S(C)(=O)=O	inactive
CC(C)(Sc1nc(-c2ccccc2)c(-c2ccccc2)s1)C(=O)O	inactive
CC1(C)Oc2ccc(C#N)cc2[C@H](n2ccccc2=O)[C@H]1O	inactive
COc1ccc(OC)c(-c2cn3cc(C(=O)NCCc4cccc(OC)c4OC)ccc3n2)c1	inactive
O=C(O)[C@H]1CC[C@H](c2nc(NCc3ccc4c(c3)OCO4)c3c(n2)sc2ccccc23)CC1	inactive
CCOc1cc(C2=NN(C(=O)c3ccc(NC(=O)c4cccnc4)cc3)CCC2)ccc1OC	inactive
CCOc1cc(CCC(=O)NC[C@H]2S[C@@H](c3ccc(C#Cc4ccccc4)cc3)N(c3cccc(C(N)=O)c3)C2=O)ccc1OC	inactive
CC1=C(C(=O)N2CCc3ccc(C(F)(F)F)cc3C2)C2(CCN(C3CCOCC3)CC2)OC1=O	inactive
COc1ccc(C(=O)N2CCC(C)(C)c3cc(C4=NNC(=O)SC4C)ccc32)cc1OC (stereo not drawn)	inactive
CCCN1CCC2(CC1)OC(=O)C(C)=C2C(=O)N1CCc2ccc(C(F)(F)F)cc2C1	inactive
COc1cc(Nc2nccn3nc(Nc4cccc(C(F)(F)F)c4)nc23)cc(OC)c1	inactive
Cc1sc2nc(N3CCC(C(=O)O)CC3)nc(NCc3ccc4c(c3)OCO4)c2c1Cl	inactive
CC(c1ccc2c(c1)CCC2)N1CCN(c2ccccc2)CC1 (stereo not drawn)	inactive
COc1ccc(OCc2nn[nH]n2)cc1-c1cn2cc(C(=O)NCCc3c(OC)cccc3OC)sc2n1	inactive
COCc1cc(-c2nc(-c3cc(F)cc(CN(C)CC(=O)O)c3)no2)ccc1-c1ccccc1C	inactive
CCCc1cc(C)c(C(=O)N=C(N)N)cc1S(C)(=O)=O	inactive
COCc1cc(-c2nc(-c3ccc(C(=O)O)c(F)c3)no2)ccc1-c1cc(F)ccc1OC	inactive
CC1=C(C(=O)N2CCN(c3cccc(C(F)(F)F)c3)CC2)C2(CCN(CCc3ccc(F)cc3)CC2)OC1=O	inactive
CCN1CCC2(CC1)OC(=O)C(C)=C2C(=O)N1CCc2ccc(C(F)(F)F)cc2C1	inactive
Cc1ccccc1-c1ccc(-c2nc(-c3ccc(CN(C)CCC(=O)O)c(F)c3)no2)cc1OCC1CC1	inactive
Cc1cc(Oc2ccccc2)c(S(C)(=O)=O)cc1C(=O)N=C(N)N	inactive

SMILES	In vitro activity
Cc1cc(C2CCC2)c(S(C)(=O)=O)cc1C(=O)N=C(N)N	inactive
O=C(O)c1ccc(-c2nc(NCc3ccc4c(c3)OCO4)c3c(n2)sc2ccccc23)cc1	inactive
COc1nc(/C=C/c2nc3n(n2)CCCC3c2ccccc2C(F)(F)F)ccc1-n1cnc(C)c1 (stereo not drawn)	inactive
Cc1c(C(=O)N=C(N)N)cc(-n2cccc2)c(C)c1C	inactive
COc1nc(/C=C/c2nc3n(n2)CCC[C@@H]3c2ccccc2C(F)(F)F)ccc1-n1cnc(C)c1	inactive
CCOc1cc(-c2nc(-c3ccc(CN(C)CC(=O)O)c(F)c3)no2)ccc1-c1ccccc1C	inactive
COc1ccc(CCNC(=O)c2cn3cc(-c4cc(OCCCO)ccc4OC)nc3s2)c(OCCCO)c1	inactive
CCCCc1nc2ccn(Cc3ccccc3)c(=O)c2n1Cc1ccc(-c2ccccc2-c2nn[nH]n2)cc1	inactive
COc1ccc(OCC(N)=O)cc1-c1cn2cc(C(=O)NCCc3c(OC)cccc3OC)sc2n1	inactive
CCOC(=O)c1ccc(C2=CSC3=Nc4ccccc4CCN23)cc1	inactive
CCN1CCC2(CC1C)OC(=O)C(C)=C2C(=O)N1CCc2ccc(C(F)(F)F)cc2C1 (stereo not drawn)	inactive
Cc1cc(Nc2ccccn2)c(S(C)(=O)=O)cc1C(=O)N=C(N)N	inactive
COc1ccc(N2C(=O)c3ccccc3NC23CN(Cc2cccc(C)c2)C3)cc1	inactive
O=C(c1cc2c(s1)CC(C(=O)O)C2)c1ccccc1Cl (stereo not drawn)	inactive
COc1cc(NC(=O)c2cn(Cc3ccc(Cl)cc3)nn2)ccc1-n1cnc(C)c1	inactive
O=C(O)c1ccc(C(=O)Nc2sc3c(c2C(=O)NCc2ccc4c(c2)OCO4)CCCC3)cc1	inactive
CCOC(=O)CC1=NN(c2ccc(C(=O)O)cc2)C(=O)/C1=C\Nc1ccccc1CC	inactive
COc1ccc(CNc2nc(CCCC(=O)O)nc3oc4c(c23)CCCC4)cc1Cl	inactive
Cc1cc(C)c(S(C)(=O)=O)cc1C(=O)N=C(N)N	inactive
COc1ccc(CNc2nc(-c3ccc(CC(=O)O)cc3)nc3sc4c(c23)CCCC4)cc1Cl	inactive
CCNC1=N[C@@H]2[C@@H](O)[C@H](O)[C@@H](Cn3cc(COc4ccc(C)cc4)nn3)O[C@@H]2S1	inactive
C=CCSc1ccc(-c2nc3ccncc3[nH]2)c(OC)c1	inactive
